Measured values as given in article PMC11058275, “Targeted potent antimicrobial and antitumor oxygen-heterocyclic-based pyran analogues: synthesis and computational studies” (Scientific Reports, 2024).
Read-outs that look alike come from different tables or passages of the source.

Columns and labels:
[1] = system: Bacillus cereus (ATCC 10987); assay: Agar diffusion antibacterial screening (inhibition zone); assay type: cell-based; conditions: ATCC10987, B. cereus, 1 mg/mL, Mueller–Hinton agar, read-out: Diameter of inhibition zone
Procedure: (§1) The antibacterial activity of β-enamionitriles (4a-q) was screened using Mueller–Hinton agar medium for bacteria in an agar diffusion methodology. Ciprofloxacin (1 mg/mL) was the reference antibiotic drug used in the analysis of collections that included four gram-positive species of multi drug resistant pathogenic bacteria: Staphylococcus aureus (MRSA) (ATCC 6539), Staphylococcus aureus (ATCC 6538), Bacillus cereus (ATCC 10987), Bacillus subtilis (ATCC 6633), and two gram-negative species of multi drug resistant pathogenic bacteria Klebsiella pneumonia (ATCC 13883) and Escherichia coli (ATCC 8739). […] Using a 1 mg/mL concentration of compounds (4a-q), the minimum zone of inhibition (IZ, the area around the antimicrobial agent where bacterial growth is prevented) was established in mm ± standard deviation beyond the well diameter (6 mm). […] The synthetic compound's inhibitory effects on evaluation against these organisms are depicted in Fig. 9 and Table 1.
(§2) Compound 4a-q was screened for its in vitro antimicrobial activities against pathogenic bacteria species using the standard antibiotics Ampicillin, Gentamycin and Ketoconazole as reference drugs as reported previously. The minimum inhibitory concentration (MIC) was determined as previously reported. The antimicrobial activities were performed at the Regional Centre for Mycology & Biotechnology (RCMP), Al-Azhar University.

[2] = system: Bacillus subtilis (ATCC 6633); assay: as above; assay type: cell-based; conditions: ATCC6633, B. subtilis, 1 mg/mL, Mueller–Hinton agar, read-out: Diameter of inhibition zone
Procedure: as §1, §2

[3] = system: Escherichia coli (ATCC 8739); assay: as above; assay type: cell-based; conditions: ATCC8739, E. coli, 1 mg/mL, Mueller–Hinton agar, read-out: Diameter of inhibition zone
Procedure: as §1, §2

[4] = system: Klebsiella pneumonia (ATCC 13883); assay: as above; assay type: cell-based; conditions: Klebsiella pneumoniae, ATCC13883, K. pneumonia, 1 mg/mL, Mueller–Hinton agar, read-out: Diameter of inhibition zone
Procedure: as §1, §2

[5] = system: Staphylococcus aureus (ATCC 6538); assay: as above; assay type: cell-based; conditions: ATCC6538, S. aureus, 1 mg/mL, Mueller–Hinton agar, read-out: Diameter of inhibition zone
Procedure: as §1, §2

[6] = system: Staphylococcus aureus (MRSA) (ATCC 6539); assay: as above; assay type: cell-based; conditions: read-out: Diameter of inhibition zone
Procedure: as §1, §2

[7] = system: HCT-116 (human colon cancer); assay: MTT cytotoxicity assay; assay type: cell-based
From the text: (§3) The antiproliferative activity of the newly synthesized 1H-benzo[f]chromenes derivatives (4a-q) was examined in three human cancer cell lines: MCF-7 (breast cancer), HCT-116 (human colon cancer), and HepG-2 (hepatocellular carcinoma), as well as the two normal cell lines, HFL-1 (human foetal lung) and WI-38 (human diploid fibroblasts), using the 3-(4,5-dimethylthiazol-2-yl)-2,5-diphenyl tetrazolium bromide (MTT) colorimetric assay[56].
(§4) Compounds 4a-q was initially evaluated for in vitro antitumor activity against three different human cell lines: MCF-7, HCT-116 and HepG-2. In-vitro cytotoxicity evaluation was performed at the Regional Center for Mycology & Biotechnology (RCMP), Al-Azhar University under different concentrations (50, 25, 12.5, 6.25, 3.125, 1.56 and 0 µg/mL); vinblastine and doxorubicin are used as reference cytotoxic compounds.

[8] = system: HepG-2 (hepatocellular carcinoma); assay: MTT cytotoxicity assay; assay type: cell-based; conditions: Homo sapiens
From the text: as §3, §4

[9] = system: HFL-1 (human foetal lung); assay: MTT cytotoxicity assay, normal cells; assay type: cell-based; conditions: HFL1, HFL-1 normal cells, MTT, 24-h incubation, mean ± standard error, read-out: IC50 Normotoxicity HFL-1
From the text: as §3, §4

[10] = system: WI-38 (human diploid fibroblasts); assay: MTT cytotoxicity assay, normal cells; assay type: cell-based; conditions: WI-38 normal cells, MTT, 24-h incubation, mean ± standard error, read-out: IC50 Normotoxicity WI-38
From the text: as §3, §4

MCF-7 (breast cancer) = assay: MTT cytotoxicity assay; conditions: Homo sapiens
From the text: as §3, §4

[11] = MTT, 24-h incubation, mean ± standard error, read-out: IC50 Cancerotoxicity HCT-116
[12] = HepG2, MTT, 24-h incubation, mean ± standard error, read-out: IC50 Cancerotoxicity HepG-2
[13] = MCF7, 24 h, read-out: IC50 Cancerotoxicity MCF-7

Compound	melting point [°C]	zone of inhibition at 1000 µg/mL [1] [mm]	zone of inhibition at 1000 µg/mL [2] [mm]	zone of inhibition at 1000 µg/mL [3] [mm]	zone of inhibition at 1000 µg/mL [4] [mm]	zone of inhibition at 1000 µg/mL [5] [mm]	zone of inhibition at 1000 µg/mL [6] [mm]	IC50 [7, 11] [µM]	IC50 [8, 12] [µM]	IC50 [9] [µM]	IC50 [10] [µM]	IC50 (MCF-7 (breast cancer); [13]) [µM]	IC50 ([7]; given in µg/mL, read-out: IC50 HCT-116) [µg/mL]	IC50 ([8]; HepG2, given in µg/mL, read-out: IC50 HepG-2) [µg/mL]	IC50 (MCF-7 (breast cancer); MCF7, read-out: IC50 MCF-7) [µg/mL]
N#CC(C#N)=Cc1ccc(Cl)cc1	162 to 163														
O=C(O)c1cn(C2CC2)c2cc(N3CCNCC3)c(F)cc2c1=O [Ciprofloxacin, reference compound]		22	0	25	0	0	0								
COc1ccc2c3c(ccc2c1)OC(N)=C(C#N)C3c1ccccc1Cl (stereo not drawn) [Compound 4b, 3-Amino-1-(2-chlorophenyl)-8-methoxy-1H-benzo[f]chromene-2-carbonitrile]	265 to 266	14	0	12	13	0	13	8.6 ± 0.25	6.1 ± 0.2	198.6 ± 0.1	171 ± 0.2	3.9 ± 0.18			
COc1ccc2c3c(ccc2c1)OC(N)=C(C#N)C3c1cccc(Cl)c1 (stereo not drawn) [Compound 4c, 3-Amino-1-(3-chlorophenyl)-8-methoxy-1H-benzo[f]chromene-2-carbonitrile]	216 to 217	17	0	12	13	0	15	5.5 ± 0.35	3.3 ± 0.5	187.6 ± 0.2	214.1 ± 0.1	3.6 ± 0.14			
COc1ccc2c3c(ccc2c1)OC(N)=C(C#N)C3c1ccc(I)cc1 (stereo not drawn) [Compound 4f, 3-Amino-1-(4-iodophenyl)-8-methoxy-1H-benzo[f]chromene-2-carbonitrile]	227 to 228	15	8	0	9	0	12	27.8 ± 0.3	39.2 ± 0.2			48.5 ± 0.1			
COc1ccc2c3c(ccc2c1)OC(N)=C(C#N)C3c1c(F)cccc1F (stereo not drawn) [Compound 4h, 3-Amino-1-(2,6-difluorophenyl)-8-methoxy-1H-benzo[f]chromene-2-carbonitrile]	295 to 296	9	0	0	10	9	13	33.8 ± 0.12	48.1 ± 0.2			60.2 ± 0.3			
COc1ccc2c3c(ccc2c1)OC(N)=C(C#N)C3c1cccc(Cl)c1Cl (stereo not drawn) [Compound 4i, 3-Amino-1-(2,3-dichlorophenyl)-8-methoxy-1H-benzo[f]chromene-2-carbonitrile]	256 to 257	8	0	0	14	0	13	3.5 ± 0.15	2.8 ± 0.17	154.5 ± 0.1	160.1 ± 0.2	2.3 ± 0.01	1.4 ± 0.15	11.1 ± 0.17	0.9 ± 0.01
